{
  "source": "ChEMBL document CHEMBL1212763",
  "about": "“Pharmacokinetics and safety of S/GSK1349572, a next-generation HIV integrase inhibitor, in healthy volunteers” (Antimicrob Agents Chemother, 2010)",
  "key": {"Homo sapiens [1]": {"tested_on": "Homo sapiens", "experiment": "Toxicity in healthy human assessed as incidence of drug related incidence of pharyngolaryngeal pain at 25 mg, qd for 10 days administered as suspension measured after last dose coadministered with 3 mg CYP3A4 probe midazolam", "type": "organism-based", "conditions": "in vivo, 240 h"}, "Homo sapiens [2]": {"tested_on": "Homo sapiens", "experiment": "Toxicity in healthy human assessed as incidence of drug related incidence of pharyngolaryngeal pain at 10 mg, qd for 10 days administered as suspension measured after last dose", "type": "organism-based", "conditions": "in vivo, 240 h"}, "Homo sapiens [3]": {"tested_on": "Homo sapiens", "experiment": "Toxicity in healthy human assessed as incidence of drug related incidence of headache at 50 mg, qd for 10 days administered as suspension measured after last dose", "type": "organism-based", "conditions": "in vivo, 240 h"}, "Homo sapiens [4]": {"tested_on": "Homo sapiens", "experiment": "Toxicity in healthy human assessed as incidence of drug related incidence of pruritis at 25 mg, qd for 10 days administered as suspension measured after last dose coadministered with 3 mg CYP3A4 probe midazolam", "type": "organism-based", "conditions": "in vivo, 240 h"}, "[5]": {"experiment": "Tmax in healthy human at 100 mg administered as single dose suspension", "type": "ADME, organism-based", "conditions": "in vivo"}, "[6]": {"experiment": "Tmax in healthy human at 25 mg administered as single dose suspension", "type": "ADME, organism-based", "conditions": "in vivo"}, "[7]": {"experiment": "Drug level at 24 hrs in healthy human at 100 mg administered as single dose suspension", "type": "ADME, organism-based", "conditions": "in vivo, read-out: Drug uptake"}, "Homo sapiens [8]": {"tested_on": "Homo sapiens", "experiment": "Toxicity in healthy human assessed as incidence of drug related incidence of somnolence at 5 mg administered as single dose suspension", "type": "organism-based", "conditions": "in vivo"}, "[9]": {"experiment": "AUC (0-t) in healthy human at 10 mg administered as single dose suspension", "type": "ADME, organism-based", "conditions": "plasma"}, "[10]": {"experiment": "Tmax in healthy human at 2 mg administered as single dose suspension", "type": "ADME, organism-based", "conditions": "in vivo"}, "[11]": {"experiment": "Drug level at 24 hrs in healthy human at 2 mg administered as single dose suspension", "type": "ADME, organism-based", "conditions": "in vivo, read-out: Drug uptake"}, "[12]": {"experiment": "Tmax in healthy human at 50 mg, qd for 10 days administered as suspension measured after last dose", "type": "ADME, organism-based", "conditions": "in vivo"}, "Homo sapiens [13]": {"tested_on": "Homo sapiens", "experiment": "Toxicity in healthy human assessed as incidence of drug related incidence of headache at 25 mg, qd for 10 days administered as suspension measured after last dose", "type": "organism-based", "conditions": "in vivo, 240 h"}, "[14]": {"experiment": "Drug level in healthy human at 50 mg, qd for 10 days administered as suspension measured after last dose", "type": "ADME, organism-based", "conditions": "in vivo, read-out: Drug uptake"}, "Homo sapiens [15]": {"tested_on": "Homo sapiens", "experiment": "Toxicity in healthy human assessed as incidence of drug related incidence of pharyngolaryngeal pain at 50 mg, qd for 10 days administered as suspension measured after last dose", "type": "organism-based", "conditions": "in vivo, 240 h"}, "[16]": {"experiment": "Half life in healthy human at 5 mg administered as single dose suspension", "type": "ADME, organism-based", "conditions": "in vivo"}, "[17]": {"experiment": "AUC (0-infinity) in healthy human at 5 mg administered as single dose suspension", "type": "ADME, organism-based", "design": "dose 5 mg, time infinity", "conditions": "plasma"}, "[18]": {"experiment": "Drug level at 24 hrs in healthy human at 50 mg administered as single dose suspension", "type": "ADME, organism-based", "conditions": "in vivo, read-out: Drug uptake"}, "Homo sapiens [19]": {"tested_on": "Homo sapiens", "experiment": "Toxicity in healthy human assessed as incidence of drug related incidence of headache at 10 mg, qd for 10 days administered as suspension measured after last dose", "type": "organism-based", "conditions": "in vivo, 240 h"}, "[20]": {"experiment": "AUC (0-infinity) in healthy human at 50 mg administered as single dose suspension", "type": "ADME, organism-based", "design": "dose 50 mg, time infinity", "conditions": "plasma"}, "[21]": {"experiment": "Cmax in healthy human at 25 mg administered as single dose suspension", "type": "ADME, organism-based", "design": "dose 25 mg", "conditions": "in vivo"}, "[22]": {"experiment": "AUC (0-infinity) in healthy human at 2 mg administered as single dose suspension", "type": "ADME, organism-based", "design": "dose 2 mg, time infinity", "conditions": "plasma"}, "Homo sapiens [23]": {"tested_on": "Homo sapiens", "experiment": "Toxicity in healthy human assessed as incidence of drug related incidence of somnolence at 25 mg administered as single dose suspension", "type": "organism-based", "conditions": "in vivo"}, "[24]": {"experiment": "AUC (0-tau) in healthy human at 50 mg, qd for 10 days administered as suspension measured after last dose", "type": "ADME, organism-based", "conditions": "plasma"}, "Homo sapiens [25]": {"tested_on": "Homo sapiens", "experiment": "Toxicity in healthy human assessed as incidence of drug related incidence of head ache at 10 mg administered as single dose suspension", "type": "organism-based", "conditions": "in vivo"}, "[26]": {"experiment": "Tmax in healthy human at 25 mg, qd for 10 days administered as suspension measured after last dose", "type": "ADME, organism-based", "conditions": "in vivo"}, "[27]": {"experiment": "Cmax in healthy human at 50 mg, qd for 10 days administered as suspension measured after last dose", "type": "ADME, organism-based", "design": "dose 50 mg", "conditions": "in vivo"}, "[28]": {"experiment": "Apparent oral clearance in healthy human at 100 mg administered as single dose suspension", "type": "ADME, organism-based", "conditions": "in vivo"}, "[29]": {"experiment": "Drug level at 24 hrs in healthy human at 10 mg administered as single dose suspension", "type": "ADME, organism-based", "conditions": "in vivo, read-out: Drug uptake"}, "[30]": {"experiment": "Tmax in healthy human at 10 mg administered as single dose suspension", "type": "ADME, organism-based", "conditions": "in vivo"}, "Homo sapiens [31]": {"tested_on": "Homo sapiens", "experiment": "Toxicity in healthy human assessed as incidence of adverse events at 10 to 50 mg, qd for 10 days administered as suspension measured after last dose", "type": "organism-based", "conditions": "in vivo, 240 h"}, "[32]": {"experiment": "Apparent oral clearance in healthy human at 10 mg administered as single dose suspension", "type": "ADME, organism-based", "conditions": "in vivo"}, "[33]": {"experiment": "AUC (0-t) in healthy human at 5 mg administered as single dose suspension", "type": "ADME, organism-based", "conditions": "plasma"}, "[34]": {"experiment": "Apparent oral clearance in healthy human at 25 mg administered as single dose suspension", "type": "ADME, organism-based", "conditions": "in vivo"}, "Homo sapiens [35]": {"tested_on": "Homo sapiens", "experiment": "Toxicity in healthy human assessed as incidence of drug related incidence of headache at 25 mg, qd for 10 days administered as suspension measured after last dose coadministered with 3 mg CYP3A4 probe midazolam", "type": "organism-based", "conditions": "in vivo, 240 h"}, "[36]": {"experiment": "Half life in healthy human at 100 mg administered as single dose suspension", "type": "ADME, organism-based", "conditions": "in vivo"}, "[37]": {"experiment": "AUC (0-infinity) in healthy human at 100 mg administered as single dose suspension", "type": "ADME, organism-based", "design": "dose 100 mg, time infinity", "conditions": "plasma"}},
  "data": [
    {"smiles": "C[C@@H]1CCO[C@H]2Cn3cc(C(=O)NCc4ccc(F)cc4F)c(=O)c([O-])c3C(=O)N12.[Na+]", "note": "[DOLUTEGRAVIR SODIUM]", "values": [
      {"measurement": "Activity", "setting": "Homo sapiens [1]", "value": 0, "unit": "%"},
      {"measurement": "Activity", "setting": "Homo sapiens [2]", "value": 0, "unit": "%"},
      {"measurement": "Activity", "setting": "Homo sapiens [3]", "value": 22, "unit": "%"},
      {"measurement": "Activity", "setting": "Homo sapiens [4]", "value": 0, "unit": "%"},
      {"measurement": "Tmax", "setting": "[5]", "value": 1, "unit": "h"},
      {"measurement": "Tmax", "setting": "[6]", "value": 0.75, "unit": "h"},
      {"measurement": "concentration at 24 h", "setting": "[7]", "value": 1800, "unit": "ng/mL"},
      {"measurement": "Activity", "setting": "Homo sapiens [8]", "value": 0, "unit": "%"},
      {"measurement": "AUC(0-t)", "setting": "[9]", "value": 14300, "unit": "ng·h/mL"},
      {"measurement": "Tmax", "setting": "[10]", "value": 0.63, "unit": "h"},
      {"measurement": "concentration at 24 h", "setting": "[11]", "value": 38.2, "unit": "ng/mL"},
      {"measurement": "Tmax", "setting": "[12]", "value": 1, "unit": "h"},
      {"measurement": "Activity", "setting": "Homo sapiens [13]", "value": 0, "unit": "%"},
      {"measurement": "concentration at 240 h", "setting": "[14]", "value": 1640, "unit": "ng/mL"},
      {"measurement": "Activity", "setting": "Homo sapiens [15]", "value": 11, "unit": "%"},
      {"measurement": "half-life", "setting": "[16]", "value": 14.3, "unit": "h"},
      {"measurement": "AUC(0-inf)", "setting": "[17]", "value": 8870, "unit": "ng·h/mL"},
      {"measurement": "concentration at 24 h", "setting": "[18]", "value": 1060, "unit": "ng/mL"},
      {"measurement": "Activity", "setting": "Homo sapiens [19]", "value": 0, "unit": "%"},
      {"measurement": "AUC(0-inf)", "setting": "[20]", "value": 73200, "unit": "ng·h/mL"},
      {"measurement": "Cmax", "setting": "[21]", "value": 2760, "unit": "ng/mL"},
      {"measurement": "AUC(0-inf)", "setting": "[22]", "value": 2780, "unit": "ng·h/mL"},
      {"measurement": "Activity", "setting": "Homo sapiens [23]", "value": 0, "unit": "%"},
      {"measurement": "AUC tau at 240 h", "setting": "[24]", "value": 76800, "unit": "ng·h/mL"},
      {"measurement": "Activity", "setting": "Homo sapiens [25]", "value": 13, "unit": "%"},
      {"measurement": "Tmax", "setting": "[26]", "value": 1, "unit": "h"},
      {"measurement": "Cmax", "setting": "[27]", "value": 6160, "unit": "ng/mL"},
      {"measurement": "CL/F", "setting": "[28]", "value": 12.3, "unit": "mL/min"},
      {"measurement": "concentration at 24 h", "setting": "[29]", "value": 196, "unit": "ng/mL"},
      {"measurement": "Tmax", "setting": "[30]", "value": 0.63, "unit": "h"},
      {"measurement": "Activity", "setting": "Homo sapiens [31]", "value": "Non-toxic"},
      {"measurement": "CL/F", "setting": "[32]", "value": 11.5, "unit": "mL/min"},
      {"measurement": "AUC(0-t)", "setting": "[33]", "value": 8540, "unit": "ng·h/mL"},
      {"measurement": "CL/F", "setting": "[34]", "value": 11.8, "unit": "mL/min"},
      {"measurement": "Activity", "setting": "Homo sapiens [35]", "value": 0, "unit": "%"},
      {"measurement": "half-life", "setting": "[36]", "value": 14.7, "unit": "h"},
      {"measurement": "AUC(0-inf)", "setting": "[37]", "value": 136000, "unit": "ng·h/mL"}
    ]}
  ]
}
